In US5124157A, “Method and device for administering dexmedetomidine transdermally” (Cygnus Therapeutic Systems, priority 1989, dated 1992):
“Also recorded” adds a separate entry of the source.

Key:
[1] = skin permeability, base versus salts (general statement); assay type: in vitro ADME; conditions: free base vs its salts; no data given
[2] = no data given; cited from earlier work
[3] = system: alpha-2 receptor; conditions: background, cited from earlier work; for activity/potency of the isomers (in words): isomers compared with each other

SMILES | skin permeability of base form relative to salts (in words) [1] | clearance rate from the body (in words) [2] | activity/potency of the isomers (in words) [3] | alpha-2 receptor agonist potency and selectivity (in words) [3]
Cc1cccc([C@H](C)c2cnc[nH]2)c1C [dexmedetomidine] | the skin is somewhat more permeable to the base form of the drug than its salts | quite high; also recorded: relatively high | the active isomer | 
Cc1cccc(C(C)c2cnc[nH]2)c1C (stereo not drawn) [Medetomidine, 4(5)-[alpha-methyl-2,3-dimethylbenzyl] imidazole] |  |  |  | potent and selective alpha-2 receptor agonist
Cc1cccc([C@@H](C)c2cnc[nH]2)c1C [Preparation 1-isomer] |  |  | far less potent | 
